Test results taken from PubChem BioAssay (NCI).
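Cultured in 96-well plates, cells were exposed to test compound for 48 hours across five concentrations. GI50: concentration for 50% inhibition of growth. TGI is the concentration that stops growth completely.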

Legend:
Assay in all cases: NCI-60 cell line screen, 48 h
[1] = test system: UACC-257 melanoma
[2] = test system: PC-3 prostate
[3] = test system: HOP-92 NSCLC
[4] = test system: SF-268 CNS
[5] = test system: HS 578T breast
[6] = test system: OVCAR-8 ovarian
[7] = test system: SF-295 CNS
[8] = test system: OVCAR-3 ovarian
[9] = test system: DU-145 prostate
[10] = test system: CAKI-1 renal

Structure (SMILES)	GI50 [1] [nM]	TGI [1] [µM]	GI50 [2] [nM]	TGI [2] [µM]	GI50 [3] [nM]	TGI [3] [µM]	GI50 [4] [nM]	TGI [4] [µM]	GI50 [5] [nM]	TGI [5] [µM]	GI50 [6] [µM]	TGI [6] [µM]	GI50 [7] [nM]	TGI [7] [µM]	GI50 [8] [nM]	TGI [8] [µM]	GI50 [9] [µM]	TGI [9] [µM]	GI50 [10] [µM]	TGI [10] [µM]
COc1cc2c(cc1Nc1nc(Nc3cccc(F)c3C(N)=O)c3cc[nH]c3n1)N(C(=O)CN1CCN(C(C)C)CC1)CC2	2980	6.3	5120	13.5	374	3.13	3980	8.34	3760	10.3	4.54	10.2	4320	9.26	4520	8.69	3.77	7.28	4.94	11.9
O=c1oc2ccc(Br)cc2c(=O)n1-c1ccc(I)cc1F	328	1.91	1130	5.86	164	0.492	383	4.82	287	1.36	0.362	5.98	1500	3.12	336	8.52	0.494	26.9	0.229	1.16
O=C(Nc1n[nH]c2nnc(-c3cccnc3)cc12)C1CC1	> 17400	> 25	6440	> 25	> 25000	> 25	> 11800	> 25	83.3	> 9.38	7.65	> 25	338	> 7.49	114	> 18.4	> 13.4	> 25	3.87	> 25
CCCCCCCCCCCCOC1C(CNC(=O)C2OC3OC(C)(C)OC3C2NC(=O)Nc2ccc(CC(=O)NC(Cc3ccccc3)C(=O)O)cc2)OC2OC(C)(C)OC21 (stereo not drawn)	> 25000	> 25	> 25000	> 25	> 25000	> 25	> 25000	> 25	9200	> 25	> 25	> 25	> 25000	> 25	> 25000	> 25	> 25	> 25	> 25	> 25
COc1cc(C(=O)N/N=C/c2ccc(N(C)C)cc2)cc(OC)c1OC		> 100	422	> 100	143	2.28	1120	> 100	546	> 100	0.599	> 100	288		259	0.605	0.415	2.79	3.7	> 100
COc1ccc(Nc2cc(C)nc(NCCCNc3ccnc4cc(Cl)ccc34)n2)cc1	1840	3.51	2350	9.9	1240	3.3	1800	3.61	1800	4.39	2.42	6.03	1340	2.73	1650	3.12	3.4	10.7	1.5	2.87
CC1OC(OC2C(OC3CCC4(C)C(CCC5(C)C4CC=C4C6CC(C)(C)CCC6(C(=O)O)CCC45C)C3(C)CO)OCC(O)C2O)C(O)C(O)C1O (stereo not drawn)		41.2		29.1		27.3		37.6		31.8		40.1		32		81.9		42.3		36.6
CC(=O)OC1CC2C3CCC4C[C@@H](NC(=O)C=C(C)C)CC[C@]4(C)C3CC[C@]2(C)[C@H]1C(C)N(C)C (stereo partly drawn)	2180	4.5	2140	8.97	890	4.06	1580	3.4	2000	5.25	4.87	> 31.5	2110	4.75	1990	7.56	3.41	14.1	3.71	13.2
